Compared with `O=S(=O)(c1ccc(Cl)cc1)C(CCCCF)c1cc(F)ccc1F` (configuration not stated), `COc1ccc(S(=O)(=O)N(CCCN(C)C)c2ccc(Cl)cc2Cc2c(F)cccc2F)cc1OC` is higher in melting point: 77 to 78 °C for the first, 134 °C for the second.

First: COC(=O)[C@H]1C=C(c2ccc(Br)cc2)OC(=O)[C@H]1Cc1ccccc1
Second: CN(C)CCNC(=O)Cc1ccc(OCc2ccc(-c3ccccc3)cc2)cc1
The melting point of the first is lower: 139 to 141 °C for the first, 160 to 161 °C for the second.

First: Cc1ccccc1[C@H](O)CCc1c(C(=O)N(C)C)cc2c(nc(C)n2C)c1O
Second: CN(C)CCNC(=O)c1cn(C)c(=O)c2nc3ccccc3nc12
The melting point of the first is lower: 200 to 202 °C for the first, 215 to 218 °C for the second.

First: CCOc1c(Br)cc(C(C)(C)C)cc1C(C)(C)C
Second: CC1=C(C(=O)OCOC(=O)C(C)(C)C)N2C(=O)C(NC(=O)OC(C)(C)C)C2SC1 (configuration not stated)
The melting point of the first is lower: 55 to 56 °C for the first, 97 °C for the second.

First: COc1cc2c3c(n(C(=O)c4ccccc4)c2cc1OC)CCC(C(=O)O)C3 (configuration not stated)
Second: O=C(CCC(=O)N1CCC[C@H]1C(=O)O)c1ccccc1
The melting point of the first is higher: 191 to 194 °C for the first, 95 to 97 °C for the second.

First: O=C(CCCc1ccccc1)N[C@H](Cc1ccccc1C(F)(F)F)[C@@H](O)c1ccc(F)cc1 (racemic)
Second: O=C(Nc1ccccc1)c1cccc(-c2ccc(OCC(O)CCc3cccnc3)cc2)c1 (configuration not stated)
The melting point of the first is higher: 161 to 162 °C for the first, 90 to 93 °C for the second.

`CCCNC(=S)c1ccc2c(c1)N(C(C)CN(CC)CC)c1ccc(Cl)cc1S2` (racemic) and `COc1ccc(C=O)c(Oc2ccc(Cl)cc2[N+](=O)[O-])c1` cannot be ordered by melting point: 130 °C for the first, 130 to 131 °C for the second.

First: O=c1c2c(Cc3ccc(OC(F)(F)F)cc3)n[nH]c2c2cccnc2n1-c1ccccc1
Second: Cc1oc(-c2ccccc2)nc1COc1cccc(COc2cc(CCC(=O)O)n(-c3ccccc3)n2)c1
The melting point of the first is higher: 216 to 218 °C for the first, 137 to 138 °C for the second.

Compared with `O=c1[nH]c2ccc(Cl)cc2n1CCCl`, `O=S1(=O)N=CN(CCF)c2ccc(Cl)cc21` is higher in melting point: 164 °C for the first, 211 to 218 °C for the second.

First: COc1cc2nc(S(=O)(=O)Nc3c(Cl)cccc3Cl)nn2c(OC)n1
Second: NS(=O)(=O)c1cc2[nH]c(Cc3ccccc3Cl)nc2cc1Cl
The melting point of the first is lower: 211 to 212 °C for the first, 223 to 226 °C for the second.

First: Clc1ccc2c(c1)Cc1cc(Cl)ccc1OCCOCCOCCOCCO2
Second: Cc1ccc2ncnc(N3CCc4ccc(Cl)cc43)c2c1
The melting point of the first is higher: 144 °C for the first, 138 to 141 °C for the second.

Compared with `CCOC(=O)c1cnn(C)c1C(=O)Nc1ccn2nc(-c3cccc(F)n3)nc2c1`, `CC(C)n1nc(-c2sc(C(N)=O)nc2-c2cccc(F)c2)ccc1=O` is lower in melting point: 290 °C for the first, 248 to 250 °C for the second.

`COc1ccc(C(=O)Nc2c(Cl)cncc2Cl)c2c1[nH]c1ccccc12` and `CCOC(=O)CNC(=O)Nc1ccc2oc3c(OC)ccc(C(=O)Nc4c(Cl)cncc4Cl)c3c2c1` cannot be ordered by melting point: over 250 °C for the first, over 250 °C for the second.

First: COc1cc(N2CCC(N3CCOCC3)CC2)ccc1Nc1ncc2ccc(-c3ccccc3S(C)(=O)=O)n2n1
Second: COc1nc(Br)cnc1NS(=O)(=O)c1ccccc1-c1ccc(CC(C)C)cc1
The melting point of the first is lower: 111 to 112 °C for the first, 154 to 156 °C for the second.

First: COC(=O)c1cc(C(=O)OC)nc(O)n1
Second: COC(=O)c1sc(C(=O)OC)c(OC)c1N
The melting point of the first is higher: 186 to 188 °C for the first, 120 to 124 °C for the second.

Compared with `O=C(Cc1ccc(OC2Cc3ccccc3C2)cc1)NC1(C(=O)O)Cc2ccc(-c3ccc(Cl)cc3)cc2C1` (configuration not stated), `CCOC(=O)C(C)(C)Oc1ccc(-c2ccc(CCNC(=O)c3ccc(F)cc3)cc2)cc1` is lower in melting point: 233 to 234 °C for the first, 135 °C for the second.

First: COCCCc1ccc(CNC(=O)[C@@H](COC)NC(C)=O)cc1
Second: CCCCCCC(=O)N[C@@H](C(=O)OCc1ccccc1)[C@@H](C)O
The melting point of the first is higher: 105 to 107 °C for the first, 70 to 73 °C for the second.

First: CCOc1cc(-c2nnc3c4ccccc4c(OCc4ncnn4C)nn23)no1
Second: CCOC(=O)COc1ccc2cc(-c3cc4ccccc4s3)ccc2c1Br
The melting point of the first is higher: 223 to 225 °C for the first, 178 to 181 °C for the second.

Compared with `Cc1nc(Sc2cccc(C(F)(F)F)n2)sc1CC(=O)O`, `Nc1n[nH]c2c(C(F)(F)F)cccc12` is lower in melting point: 162 to 164 °C for the first, 101 to 102 °C for the second.

First: CNc1c(F)cc2c(=O)c(C(=O)O)cn(-c3nc(N)c(F)cc3F)c2c1Cl
Second: CCOC(=O)c1cn(C2CC2)c2c(OC)c(F)c(F)cc2c1=O
The melting point of the first is higher: 251 to 253 °C for the first, 178 to 180 °C for the second.

First: Cc1ccc2c(c1)[nH]c(=O)n2CCCN1CCC2(CC1)C(=O)NCN2c1ccccc1
Second: O=c1[nH]c2ccsc2c(=O)n1CCN1CCN(c2ccccc2Cl)CC1
The melting point of the first is higher: 256 °C for the first, 193 to 196 °C for the second.

First: COc1ccc2c(=O)c(-c3ccc(F)cc3)c(-c3ccc(S(N)(=O)=O)cc3)oc2c1
Second: NS(=O)(=O)c1ccc(-c2cnn(Cc3ccc(F)cc3F)c(=O)c2-c2ccc(F)cc2)cc1
The melting point of the first is higher: 245 °C for the first, 236 to 238 °C for the second.

First: COC(=O)c1ccc(I)cc1S(N)(=O)=O
Second: COc1ccc(C(=O)CC(=O)C(F)F)cc1F
The melting point of the first is higher: 176 to 177 °C for the first, 70 to 72 °C for the second.

First: COc1cc(C(N)C(N)=O)c(F)cc1Cl (configuration not stated)
Second: Cc1oc2c(OC(C)C(N)=O)cccc2c1C (configuration not stated)
The melting point of the first is higher: 162 °C for the first, 116 to 119 °C for the second.

First: CCCC1CC(=O)Nc2c1cnn2CC (configuration not stated)
Second: CCN1CC(=O)C(C#N)=C1N
The melting point of the first is lower: 108 to 110 °C for the first, 278 to 280 °C for the second.

First: CCCOc1ccc2c(c1)C(c1ccccc1OCCC)C(C(=O)O)C2c1ccc2c(c1)OCO2 (configuration not stated)
Second: CC(C)Cc1cc(OCc2ccccc2)c2c(c1)OC(C)(C)CC2C(=O)Oc1ccc([N+](=O)[O-])cc1 (configuration not stated)
The melting point of the first is higher: 179 to 180 °C for the first, 125 to 126 °C for the second.

Compared with `CC(C)(C)OC(=O)N1CCC(C(=O)c2nc3ccccc3n2Cc2ccccc2)CC1`, `CCOC(=O)Cn1c(C(=O)NCc2nnc(C)n2-c2sc(CC)cc2C(=O)c2ccccc2)cc2ccccc21` is higher in melting point: 122 °C for the first, 129 to 131 °C for the second.

First: COCCOc1ccn(O)c(=O)c1
Second: COCCOc1ccc(/C=C/COC(=O)NS(=O)(=O)N2CCCC2)c(Oc2ncc(C(F)(F)F)cc2Cl)c1
The melting point of the first is higher: 134 °C for the first, 123 to 124 °C for the second.

Compared with `C[C@H](NC(=O)CC#N)C(=O)N1CCC[C@H]1C(=O)Nc1ccccc1`, `C[C@H]1CCCN(C(=O)[C@@H]2Cc3ccccc3N2c2nccs2)C1` is lower in melting point: 183 to 184 °C for the first, 167 to 169 °C for the second.

First: O=[N+]([O-])c1cc(CBr)n(CCBr)n1
Second: O=[N+]([O-])c1cnn2c(-c3cccs3)ccnc12
The melting point of the first is lower: 95 to 97 °C for the first, 235 to 237 °C for the second.

First: Nc1ccc2ccc(Oc3cccc(Cl)c3)nc2n1
Second: COC(=O)C(Oc1ccc(Cl)cc1)c1ccc(I)cc1 (configuration not stated)
The melting point of the first is higher: 166 °C for the first, 122 to 125 °C for the second.

First: O=C1NN(c2ccccc2)CC1CN1CCOCC1 (configuration not stated)
Second: O=c1c2cnc(N3CCOCC3)nc2sn1CCN1CCCCC1
The melting point of the first is higher: 143 to 144 °C for the first, 98 to 100 °C for the second.

First: CS(=O)(=O)c1ccc(C2SCC(=O)N2c2ccc(Cl)cc2)cc1 (configuration not stated)
Second: CCOC(=O)Cc1ccc(NC(=O)C(COc2ccc(Cl)cc2)NS(=O)(=O)c2ccc(Cl)cc2)cc1 (racemic)
The melting point of the first is higher: 231 to 233 °C for the first, 136 to 138 °C for the second.

First: O=C(SCSc1c[nH]nn1)c1ccccc1
Second: COc1ccc2c(-c3ccccc3F)noc2c1I
The melting point of the first is lower: 72.5 to 73.5 °C for the first, 135 to 138 °C for the second.

First: O=[N+]([O-])c1ccc(OC23CC4CC(CC(C4)C2)C3)c2ccccc12
Second: N#Cc1cc([N+](=O)[O-])ccc1NC(=O)c1cccc([N+](=O)[O-])c1
The melting point of the first is lower: 126 to 128 °C for the first, 205 to 206 °C for the second.

First: CC(=O)N1CCc2cc(C(=O)CCCCCBr)ccc21
Second: O=C(O)CCC(=O)c1ccc(-c2ccc(Br)cc2F)cc1
The melting point of the first is lower: 110 to 111 °C for the first, 145 to 147 °C for the second.

First: Cc1ncc([N+](=O)[O-])n1CCN1C(=O)c2cccc([N+](=O)[O-])c2C1=O
Second: CC(=O)N1CCc2c(sc3nc(CN4C(=O)CCC4=O)c(Cl)c(-c4ccc(O)cc4)c23)C1
The melting point of the first is lower: 175 to 176 °C for the first, 300 °C for the second.

First: CNS(=O)(=O)c1ccc(C)c(CCCOCCn2cnc3c(N)nc4ccccc4c32)c1
Second: COc1cccc(CNCc2ccc3nc(N)c4ncn(CC(C)C)c4c3c2)c1
The melting point of the first is higher: 207 to 209 °C for the first, 125 to 126 °C for the second.

`CNC(=S)NNc1ccnc2c(NC(=O)c3c(Cl)cccc3Cl)cccc12` and `O=C(O)c1cccc(C(=O)Nc2cccc3cc(Br)cnc23)c1` cannot be ordered by melting point: over 258 °C for the first, 275 to 277 °C for the second.

Compared with `O=C(O)C1Cc2c(c(Cl)cc3c(-c4ccccc4F)noc23)O1` (configuration not stated), `O=C=Nc1cccc(-c2nc3ccccc3c(=O)o2)c1` is lower in melting point: 199 to 200 °C for the first, 115 to 121 °C for the second.

First: CCn1c(C(=O)c2cc(C)cc(C=CC#N)c2)c(C(C)C)c(=O)[nH]c1=O
Second: CC(C)N1C(=O)c2cncnc2N(C(=O)CN2CCN(C)CC2)c2ccccc21
The melting point of the first is higher: 174 to 176 °C for the first, 133 to 135 °C for the second.

First: CC(C)CCCC(C)C1CCC2C3CC=C4CC(OS(C)(=O)=O)CCC4(C)C3CCC12C (configuration not stated)
Second: O=C(OC1CCCCC1)c1ncn2c1[C@@H]1CCCN1C(=O)c1c(Cl)cccc1-2
The melting point of the first is lower: 119 to 120 °C for the first, 166 to 167 °C for the second.

Compared with `O=S1CCN(c2nc(N3CCNCC3)cc3c(F)cccc23)CC1`, `COc1nc(-c2ccc(F)cc2C)c2c(n1)N(c1c(F)cccc1F)C(=O)NC2` is lower in melting point: 213 to 215 °C for the first, 210 to 211 °C for the second.

First: Nc1nc(-c2ccnc(-c3ccc(C(=O)NC4CCOCC4)cc3)c2)c(-c2ccccn2)s1
Second: CC(C)Oc1ccc(-c2nn(C(C)c3oc4cccc(N5CCOCC5)c4c(=O)c3-c3ccccc3)c3ncnc(N)c23)cc1F (configuration not stated)
The melting point of the first is higher: 268 °C for the first, 211 to 214 °C for the second.

First: CS(=O)(=O)NC(=O)CCCC[C@H]1CCSS1
Second: CC1C(=O)c2c(cc(OCC(=O)O)c(Cl)c2Cl)C1C (configuration not stated)
The melting point of the first is lower: 71 to 73 °C for the first, 174 to 176 °C for the second.

First: CCOC(=O)C1=C(COCc2nnc(CN(C)C)s2)NC(C)=C(C(=O)OC)C1c1cccc(Cl)c1Cl (configuration not stated)
Second: CCC(CC)COc1cccc2nc(C)c(C(=O)O)c(N)c12
The melting point of the first is higher: 168 to 170 °C for the first, 145 to 151 °C for the second.

First: S=c1nc2ccccn2c(=S)n1-c1ccccn1
Second: Cc1cccnc1-n1c(S(=O)Cc2ccccc2N(C)C)nc2c1CCC2 (configuration not stated)
The melting point of the first is lower: 107 to 109 °C for the first, 119 to 120 °C for the second.

Compared with `c1csc(-c2ncc(COc3ccc(CCCCn4ccnc4)cc3)s2)c1`, `COc1cccc(C(=O)NCC2CCCCC2)c1NC(=O)N[C@@H](Cc1ccc(NC(=O)c2c(Cl)cccc2Cl)cc1)C(=O)O` is higher in melting point: 128 to 129 °C for the first, 175 °C for the second.

Work on `COc1cc(C)ccc1S(=O)(=O)N1CCC(=O)C(C(c2ccccc2)c2ccccc2)C1` (configuration not stated) yielded a melting point of 130 to 131 °C.

Reference: a melting point compilation (Tetko et al.; mined from patent text by program, amines drawn as free bases though some values may be those of a salt)
